From patent US20110119780A1, “SCREENING FOR NON-GENOTOXIC CARCINOGENS” (priority 2008, published 2011)

Legend:
[1] = system: hepatocellular hypertrophy; assay: H&E staining of liver sections, Chlordane-treated mice; assay type: in vivo
Source text: A 20× objective lens was used to capture the images.

[2] = Pentobarbitone sleeping test; assay type: in vivo, mice; conditions: male, single intraperitoneal dose 25 mg/kg
Method: In this experiment, the activity of these transcription factors in combination was determined by measuring the barbiturate induced sleeping time. Sleeping time has been known for many years to be directly proportional to the hepatic cytochrome P450 activity and this activity can be at least in part ascribed to the P450 levels in the liver determined by CAR and PXR function.
Mice were given a single intraperitoneal dose of Narcoren (sodium pentobarbitone; purchased via a Veterinary Consultant; distributed by Merial GmbH, Germany) at 25 mg/kg of body weight. The time taken for the mice to lose, and subsequently to regain, their righting reflex was measured.

SMILES | hypertrophy on H&E staining ([1]; PXRKO/CARKO mice) | liver finding on H&E staining ([1]; WT and hPXR_old/hCAR mice) | Sleeping time ([2]; PXR/CAR hum (double humanised) mouse) [min] | Sleeping time ([2]; Wt mouse) [min]
ClC1=C(Cl)C2(Cl)C3C(Cl)C(Cl)CC3C1(Cl)C2(Cl)Cl (stereo not shown) [Chlordane] | not | hypertrophy |  | 
CCCC(C)C1(CC)C(=O)NC(=O)NC1=O (stereo not shown) [pentobarbitone, sodium pentobarbitone] |  |  | 34 | 21
